The subject of this assay is human cervical tumor cell line HeLa (ATCC CCL-2). Kind of assay: SAC-Formation - Paclitaxel-Induced Assay. The settings on record: Homo sapiens, HeLa, 24 h, HeLa cells, paclitaxel 0.05 μM, test range 0.005 μM-20 μM, read-out: IC50 [mol/l] SAC-Formation - Paclitaxel-Induced Assay. The assay is classed as cell-based. Summed up:
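Read-out is high-content imaging of anti-phospho-H3 Ser10 (mitosis) and Hoechst 33342 (DNA, cell number), with decreased mitotic fraction marking checkpoint breakthrough. Compounds (0.005–20 μM) and 0.05 μM paclitaxel co-added to overnight-plated HeLa for 24 h at 37° C; four-parameter Hill fit.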

The results in this text go back to patent US20170334899A1, “AMINO-SUBSTITUTED ISOTHIAZOLES” (Bayer Pharma Aktiengesellschaft, priority 2014, published 2017).

With `Cc1nsc(Nc2cnc(C(F)(F)F)cn2)c1C(=O)Nc1ccc(F)c(OC[C@@H]2CCN(CCC(F)(F)F)C2)c1` [Example 340, N-(4-fluoro-3-{[(3R)-1-(3,3,3-trifluoropropyl)pyrrolidin-3-yl]methoxy}phenyl)-3-methyl-5-{[5-(trifluoromethyl)pyrazin-2-yl]amino}-1,2-thiazole-4-carboxamide], the IC50 was determined as 35 nM.
As for `Cc1nsc(Nc2cnc(C(F)(F)F)cn2)c1C(=O)Nc1ccc(OCC2CCN(CC(F)F)CC2)nc1` [Example 345, N-(6-{[1-(2,2-difluoroethyl)piperidin-4-yl]methoxy}pyridin-3-yl)-3-methyl-5-{[5-(trifluoromethyl)pyrazin-2-yl]amino}-1,2-thiazole-4-carboxamide], the figure is 21 nM.
`Cc1nsc(Nc2cnc(C(F)(F)F)cn2)c1C(=O)Nc1ccc(OCCCN(C)CCF)nc1` [Example 352, N-(6-{3-[(2-fluoroethyl)(methyl)amino]propoxy}pyridin-3-yl)-3-methyl-5-{[5-(trifluoromethyl)pyrazin-2-yl]amino}-1,2-thiazole-4-carboxamide]: the IC50 came to 520 nM.
Regarding `Cc1nsc(Nc2cnc(C(F)(F)F)cn2)c1C(=O)Nc1ccc(OCC2CCCN(CC(F)(F)F)C2)nc1` (centres unmarked) [Example 326, 3-methyl-N-(6-{[1-(2,2,2-trifluoroethyl)piperidin-3-yl]methoxy}pyridin-3-yl)-5-{[5-(trifluoromethyl)pyrazin-2-yl]amino}-1,2-thiazole-4-carboxamide], the IC50 was 2300 nM.
For the compound `Cc1nsc(Nc2cnc(C(F)(F)F)cn2)c1C(=O)Nc1ccc(O[C@@H]2CCN(CCC(F)(F)F)C2)nc1` [Example 381, 3-methyl-5-{[5-(trifluoromethyl)pyrazin-2-yl]amino}-N-(6-{[(3R)-1-(3,3,3-trifluoropropyl)pyrrolidin-3-yl]oxy}pyridin-3-yl)-1,2-thiazole-4-carboxamide], the IC50 worked out at 140 nM.
In the case of `Cc1nsc(Nc2cnc(C(F)(F)F)cn2)c1C(=O)Nc1ccc(OCCCN(C)CC(F)(F)F)nc1` [Example 354, 3-methyl-N-(6-{3-[methyl(2,2,2-trifluoroethyl)amino]propoxy}pyridin-3-yl)-5-{[5-(trifluoromethyl)pyrazin-2-yl]amino}-1,2-thiazole-4-carboxamide], the IC50 was 120 nM.
Take `CCN1CC[C@@H](Oc2ccc(NC(=O)c3c(C)nsc3Nc3cnc(C(F)(F)F)cn3)cn2)[C@H](F)C1` [Example 369, N-(6-{[(3R,4R)-1-ethyl-3-fluoropiperidin-4-yl]oxy}pyridin-3-yl)-3-methyl-5-{[5-(trifluoromethyl)pyrazin-2-yl]amino}-1,2-thiazole-4-carboxamide]: the IC50 is 150 nM.
As for `Cc1nsc(Nc2cnc(C(F)(F)F)cn2)c1C(=O)Nc1ccc(O[C@H]2CCN(CC(F)(F)F)C2)nc1` [Example 383, 3-methyl-N-(6-{[(3S)-1-(2,2,2-trifluoroethyl)pyrrolidin-3-yl]oxy}pyridin-3-yl)-5-{[5-(trifluoromethyl)pyrazin-2-yl]amino}-1,2-thiazole-4-carboxamide], the figure is 27 nM; as for `Cc1nsc(Nc2cnc(C(F)(F)F)cn2)c1C(=O)Nc1ccc(N2CCN(CC(F)F)CC2)cn1` [Example 372, N-{5-[4-(2,2-difluoroethyl)piperazin-1-yl]pyridin-2-yl}-3-methyl-5-{[5-(trifluoromethyl)pyrazin-2-yl]amino}-1,2-thiazole-4-carboxamide], 330 nM.
For `Cc1nsc(Nc2cnc(C(F)(F)F)cn2)c1C(=O)Nc1ccc(F)c(OCC2CCCN(CC(F)(F)F)C2)c1` (centres unmarked) [Example 337, N-(4-fluoro-3-{[1-(2,2,2-trifluoroethyl)piperidin-3-yl]methoxy}phenyl)-3-methyl-5-{[5-(trifluoromethyl)pyrazin-2-yl]amino}-1,2-thiazole-4-carboxamide], the IC50 worked out at 51 nM.
In the case of `Cc1nsc(Nc2cnc(C(F)(F)F)cn2)c1C(=O)Nc1ccc(N2CCN(CC(F)F)CC2)nc1` [Example 359, N-{6-[4-(2,2-difluoroethyl)piperazin-1-yl]pyridin-3-yl}-3-methyl-5-{[5-(trifluoromethyl)pyrazin-2-yl]amino}-1,2-thiazole-4-carboxamide], the IC50 is 110 nM.
With `Cc1nsc(Nc2cnc(C(F)(F)F)cn2)c1C(=O)Nc1ccc(O[C@H]2CCCN(CC(F)(F)F)C2)nc1` [Example 389, 3-methyl-N-(6-{[(3S)-1-(2,2,2-trifluoroethyl)piperidin-3-yl]oxy}pyridin-3-yl)-5-{[5-(trifluoromethyl)pyrazin-2-yl]amino}-1,2-thiazole-4-carboxamide] the figure was 160 nM.
For `Cc1nsc(Nc2cnc(C(F)(F)F)cn2)c1C(=O)Nc1ccc(OCC2CCCN(CCF)C2)nc1` (centres unmarked) [Example 325, N-(6-{[1-(2-fluoroethyl)piperidin-3-yl]methoxy}pyridin-3-yl)-3-methyl-5-{[5-(trifluoromethyl)pyrazin-2-yl]amino}-1,2-thiazole-4-carboxamide], the IC50 worked out at 53 nM.
On to `Cc1nsc(Nc2cnc(C(F)(F)F)cn2)c1C(=O)Nc1ccc(OCC2CCN(CCF)CC2)nc1` [Example 344, N-(6-{[1-(2-fluoroethyl)piperidin-4-yl]methoxy}pyridin-3-yl)-3-methyl-5-{[5-(trifluoromethyl)pyrazin-2-yl]amino}-1,2-thiazole-4-carboxamide], for which the IC50 came out at 280 nM.
Regarding `Cc1nsc(Nc2cnc(C(F)(F)F)cn2)c1C(=O)Nc1ccc(O[C@@H]2CCN(CC(F)(F)F)C2)nc1` [Example 380, 3-methyl-N-(6-{[(3R)-1-(2,2,2-trifluoroethyl)pyrrolidin-3-yl]oxy}pyridin-3-yl)-5-{[5-(trifluoromethyl)pyrazin-2-yl]amino}-1,2-thiazole-4-carboxamide], the IC50 is 330 nM.
As for `Cc1nsc(Nc2cnc(C(F)(F)F)cn2)c1C(=O)Nc1ccc(F)c(OC[C@@H]2CCCN(CC(F)F)C2)c1` [Example 341, N-(3-{[(3R)-1-(2,2-difluoroethyl)piperidin-3-yl]methoxy}-4-fluorophenyl)-3-methyl-5-{[5-(trifluoromethyl)pyrazin-2-yl]amino}-1,2-thiazole-4-carboxamide], the figure is 37 nM; as for `Cc1nsc(Nc2cnc(C(F)(F)F)cn2)c1C(=O)Nc1ccc(OCCCN(C)CCC(F)(F)F)nc1` [Example 355, 3-methyl-N-(6-{3-[methyl(3,3,3-trifluoropropyl)amino]propoxy}pyridin-3-yl)-5-{[5-(trifluoromethyl)pyrazin-2-yl]amino}-1,2-thiazole-4-carboxamide], 190 nM.
With `Cc1nsc(Nc2cnc(C(F)(F)F)cn2)c1C(=O)Nc1ccc(OCC2CCCN(CCC(F)(F)F)C2)nc1` (centres unmarked) [Example 328, 3-methyl-5-{[5-(trifluoromethyl)pyrazin-2-yl]amino}-N-(6-{[1-(3,3,3-trifluoropropyl)piperidin-3-yl]methoxy}pyridin-3-yl)-1,2-thiazole-4-carboxamide] the figure was 37 nM; with `Cc1nsc(Nc2ccc(C#N)cn2)c1C(=O)Nc1ccc(OC2CCN(CC(F)(F)F)CC2)nc1` [Example 30, 5-[(5-Cyanopyridin-2-yl)amino]-3-methyl-N-(6-{[1-(2,2,2-trifluoroethyl)piperidin-4-yl]oxy}pyridin-3-yl)-1,2-thiazole-4-carboxamide], 420 nM; with `Cc1nsc(Nc2cnc(C(F)(F)F)cn2)c1C(=O)Nc1ccc(OCC2CCN(CCC(F)(F)F)CC2)nc1` [Example 347, 3-methyl-5-{[5-(trifluoromethyl)pyrazin-2-yl]amino}-N-(6-{[1-(3,3,3-trifluoropropyl)piperidin-4-yl]methoxy}pyridin-3-yl)-1,2-thiazole-4-carboxamide], 64 nM.
As to `Cc1nsc(Nc2cnc(C(F)(F)F)cn2)c1C(=O)Nc1ccc(O[C@H]2CCN(CC(F)F)C2)nc1` [Example 382, N-(6-{[(3S)-1-(2,2-difluoroethyl)pyrrolidin-3-yl]oxy}pyridin-3-yl)-3-methyl-5-{[5-(trifluoromethyl)pyrazin-2-yl]amino}-1,2-thiazole-4-carboxamide], the IC50 worked out at 45 nM.
Consider `Cc1nsc(Nc2cnc(C(F)(F)F)cn2)c1C(=O)Nc1ccc(O[C@H]2CCCN(CCC(F)(F)F)C2)nc1` [Example 390, 3-methyl-5-{[5-(trifluoromethyl)pyrazin-2-yl]amino}-N-(6-{[(3S)-1-(3,3,3-trifluoropropyl)piperidin-3-yl]oxy}pyridin-3-yl)-1,2-thiazole-4-carboxamide], for which the IC50 came to 110 nM.
Take `Cc1nsc(Nc2cnc(C(F)(F)F)cn2)c1C(=O)Nc1ccc(F)c(OC[C@@H]2CCN(CC(F)(F)F)C2)c1` [Example 339, N-(4-fluoro-3-{[(3R)-1-(2,2,2-trifluoroethyl)pyrrolidin-3-yl]methoxy}phenyl)-3-methyl-5-{[5-(trifluoromethyl)pyrazin-2-yl]amino}-1,2-thiazole-4-carboxamide]: the IC50 is 12 nM.
Regarding `Cc1nsc(Nc2cnc(C(F)(F)F)cn2)c1C(=O)Nc1ccc(OC2CCCN(CC(F)F)C2)nc1` (centres unmarked) [Example 330, N-(6-{[1-(2,2-difluoroethyl)piperidin-3-yl]oxy}pyridin-3-yl)-3-methyl-5-{[5-(trifluoromethyl)pyrazin-2-yl]amino}-1,2-thiazole-4-carboxamide], the IC50 was found to be 25 nM.
With `CCN1CC[C@H](Oc2ccc(NC(=O)c3c(C)nsc3Nc3cnc(C(F)(F)F)cn3)cn2)[C@@H](F)C1` [Example 365, N-(6-{[(3S,4S)-1-ethyl-3-fluoropiperidin-4-yl]oxy}pyridin-3-yl)-3-methyl-5-{[5-(trifluoromethyl)pyrazin-2-yl]amino}-1,2-thiazole-4-carboxamide] the figure was 150 nM; with `CCCN1CC[C@H](Oc2ccc(NC(=O)c3c(C)nsc3Nc3cnc(C(F)(F)F)cn3)cn2)[C@@H](F)C1` [Example 370, N-(6-{[(3S,4S)-3-fluoro-1-propylpiperidin-4-yl]oxy}pyridin-3-yl)-3-methyl-5-{[5-(trifluoromethyl)pyrazin-2-yl]amino}-1,2-thiazole-4-carboxamide], 31 nM.
